Legend:
[1] = system: CRC-derived MDSC; experiment: Ex vivo GM-CSF mediated myeloid-cell differentiation; assay type: cell-based, mouse; details: 10 ng/ml GM-CSF, 72 h, vs GM-CSF only
[2] = system: MDSCs; experiment: BCG chronic inflammation mouse model: MDSC levels; assay type: in vivo; details: PBLs and spleen, compared to inflamed-untreated mice
Description: (§1) Mice were injected intraperitoneally with 10 mg/kg body weight of Azoxymethan (AOM, purchased from Sigma-Aldrich (St. Louis, Mo., USA)) dissolved in physiological saline twice in two weeks intervals. Two weeks later, 2% dextran sulfate sodium (DSS, purchased from MP biochemicals Inc. (Santa Ana, Calif., USA)) was given in the drinking water over 7 days, followed by 14 days of regular water (15). This cycle was repeated twice. Animals were sacrificed and analyzed three weeks after the last treatment. To induce a pathology-free chronic inflammation, a previously described protocol subjecting mice to heat-killed Mycobacterium […] (BCG) treatment (16) was used.
(§2) Next, the immunoregulatory effects of 5FU and CPT11 were examined in a mouse model for chronic inflammation and associated immunosuppression (10), as described in the materials and method section above and in FIG. 13A. This experiment was performed in order to investigate whether the differential effects of the drugs are related to the presence of the tumor. Briefly, the mouse model for chronic inflammation was established by three repeated injections of heat-killed BCG bacteria. A day after the second BCG injection, mice were treated twice a week with 5FU, CPT11 or a 5FU/CPT11 combination. […] No changes in CD4^+Foxp3^+ Tregs percentage were detected (FIG. 13H), confirming that these chemotherapies specifically affect MDSCs.

[3] = system: TNFα, S100A9; experiment: TNFα and S100A9 mRNA in ex vivo cultured MDSCs (Real Time PCR); assay type: cell-based, mouse; details: 3 days
[4] = system: CRC-mice
[5] = system: T-cells; experiment: CFSE T-cell proliferation assay, splenocytes of CRC-mice; assay type: in vivo, mouse; details: CFSE-labeled Thy1.2^+ T-cells, TCR-CD28 mediated activation, vs untreated CRC-mice
Description: Splenocytes or purified T-cells isolated by a magnetic column separation system (Miltenyi Biotec) were labeled with […] CFSE (Invitrogen) and subjected to TCR-mediated activation as previously described (16). Next, the effect of the given chemotherapies on the immune status was evaluated. This was performed by testing the function of the whole T-cell population (FIG. 9J) as well as the CD8^+ T-cells (FIG. 9K) in all experimental groups along with measurements of the expression levels of CD247 in CD3^+ (FIG. 9L) and in CD8^+ T-cells (FIG. 9M). T-cell proliferative response was assessed by monitoring cell divisions of gated CFSE-labeled Thy1.2^+ (CD90^+) T-cells upon TCR-CD28 mediated activation.

[6] = system: MDSCs; experiment: NO^− and ROS production by MDSCs of treated CRC-mice (flow cytometry); assay type: in vivo, mouse
[7] = system: CD247; experiment: CD247 expression in T-cells of CRC-mice; assay type: in vivo, mouse; details: splenocytes of CRC-mice
Description: Next, the effect of the given chemotherapies on the immune status was evaluated. This was performed by testing the function of the whole T-cell population (FIG. 9J) as well as the CD8^+ T-cells (FIG. 9K) in all experimental groups along with measurements of the expression levels of CD247 in CD3^+ (FIG. 9L) and in CD8^+ T-cells (FIG. 9M). T-cell proliferative response was assessed by monitoring cell divisions of gated CFSE-labeled Thy1.2^+ (CD90^+) T-cells upon TCR-CD28 mediated activation.

[8] = system: MDSCs isolated from spleens of CRC mice; experiment: Cleaved caspase-3 in ex vivo cultured MDSCs, DCs and macrophages; assay type: cell-based, mouse; details: ex vivo, various doses, 3 days, dose-dependent
[9] = system: S100A8/9; details: MDSCs from spleen of CRC-mice
[10] = system: MDSCs; experiment: Myeloid cell differentiation in vivo in CRC-mice
[11] = system: Gr1^+CD11b^+ MDSCs; experiment: MDSC accumulation in colon, spleen and PBLs of CRC-mice; assay type: in vivo, mouse
[12] = system: β-catenin; experiment: β-catenin immunohistochemistry of colons of CRC-mice; assay type: in vivo, mouse
[13] = system: cleaved caspase-3; experiment: Cleaved caspase-3 in splenic MDSCs of treated CRC-mice; assay type: in vivo, mouse
[14] = system: MDSCs isolated from spleens of CRC-mice; experiment: NO^− and ROS production in ex vivo cultured MDSCs; assay type: cell-based, mouse; details: 2.5 μmol/L, 24 h
[15] = system: CRC-mice; experiment: Vitality and survival of CRC-mice; assay type: in vivo, mouse; details: daily recorded, compared to 5FU, CPT11 treated MDSC depleted or untreated CRC-mice
Description: Therefore, MDSC depletion could reduce the harmful effect of CPT11 on the immune status, and thereby enhance the anti-tumor effect. CRC-mice were subjected to either 5FU, CPT11 or a 5FU/CPT11 combination starting at week eight, or were untreated. At the same day of the second DSS administration, CPT11-treated CRC-mice were randomly separated into two groups; one group continued with CPT11 treatment while the second group was treated with anti-Gr1 mAb for MDSC depletion in addition to CPT11 treatment. Three weeks after the second DSS treatment mice were sacrificed and PBLs (FIG. 10B) and colons (FIG. 10C) were analyzed. […] This pattern indicates a beneficial effect of 5FU that attenuates CRC progression with a harmful contribution of CPT11, supporting immunosuppression and tumor progression via its effects on MDSCs.

[16] = system: MDSCs; experiment: BCG chronic inflammation mouse model: ROS and NO^− production by MDSCs; assay type: in vivo; details: splenic MDSCs, compared to inflamed-untreated mice
Description: as §1, §2

[17] = system: stage-4 melanoma patients; experiment: Ipilimumab treatment of stage-4 metastatic melanoma patients: response and survival; assay type: in vivo, human
Description: The percentage of MDSC with the profile CD11b^+CD33^+HLA-DR^− was measured in peripheral blood samples (3-5 ml) of healthy donors (n=40) and stage-4 melanoma patients (n=56) prior to ipilimumab (anti-CTLA4) treatment. All the melanoma patients were diagnosed with metastatic melanoma. The samples were taken according to the Helsinki approval. Clinical parameters were acquired from the medical records of patients.
In order to evaluate whether MDSC levels in the blood can predict responsiveness to treatment with the anti CTLA4 antibody ipilimumab, the levels of MDSC in the peripheral blood of melanoma patients were measured, as described above, prior to treatment with ipilimumab. […] As shown in FIG. 3A there was a strike correlation between high levels of MDSC in the peripheral blood of patients and subsequent failure to respond to treatment with ipilimumab. Clearly, this parameter could distinguish between the two groups of melanoma patients. In addition, the level of lactate dehydrogenase (LDH) was evaluated before the treatment with ipilimumab began. There was no significant difference between the groups of patients with respect to this parameter (FIG. 3B).
The following experiment was performed in order to evaluate whether MDSC levels in the blood can predict metastatic severity and patient survival. The levels of MDSC, as well as the levels of LDH, were measured in the peripheral blood of melanoma patients, as described above, prior to treatment with ipilimumab. […] In addition, as shown in FIG. 4B higher MDSCs levels are found in the group of patients with high LDH levels (LDH low<480 U/I; LDH high>480 U/I). In addition, the melanoma patients were divided into two groups according to their MDSCs levels measured prior to the ipilimumab treatments; one group was termed Low MDSCs (<55.5%, n=39) and the other group was termed High MDSCs (>55.5%, n=14). The percent survival and their survival in months were evaluated. […] The survival in months of the Low MDSCs group being 11.56±1.2 (n=39) and of the High MDSCs group being 6.857±1.4 (n=14). Apparently, high MDSC levels are predictors of a more severe metastatic profile and of a shorter survival time of the cancer patient.
In this experiment the survival of melanoma patients was correlated with the severity of their metastatic stage and with their LDH levels. The patients were divided into two groups according to their metastatic level prior to ipilimumab treatments; the first group included patients with the relatively lower metastatic severity, namely M1A/B/C, and the second group included patients with the higher, M2, metastatic severity. As shown in FIGS. 5A and 5B the survival of patients in the M1A/B/C group was higher than the survival of the patients in the M2 group, being 12.4±1.2 months (n=35) in the M1A/B/C group and 6.1±1.1 months (n=18) in the M2 group. The patients were divided into two groups according their LDH levels prior to ipilimumab treatments; the first group included patients with the relatively lower LDH level, namely LDH<480 U/I; and the second group included patients with the higher LDH level, namely LDH>480 U/I. As shown in FIGS. 5C and 5D the survival of patients in the LDH low group was higher than the survival of the patients in the LDH high group, being 13.5±1.4 months (n=28) in the LDH low group and 6.6±0.9 months (n=20) in the LDH high group. Apparently, high LDH levels and a severe metastatic stage are predictors of a shorter survival time of the cancer patient.
These patients had high LDH levels on the day the first ipilimumab treatment was given and their staging level was M1C.

Compound: CCc1c2c(nc3ccc(OC(=O)N4CCC(N5CCCCC5)CC4)cc13)-c1cc3c(c(=O)n1C2)COC(=O)[C@]3(O)CC [CPT11, Irinotecan]
- GM-CSF mediated CRC-derived MDSC differentiation [1]: prevented cell differentiation
- MDSC levels [2]: induced opposite effects
- mRNA levels of TNFα and S100A9 [3]: increased mRNA levels
- spleen size (inflammatory response) ([4]; compared to 5FU treated CRC- or control-mice): enlarged spleen size
- tumor load within the colon (hematoxylin-eosin histopathology) ([4]; monotherapy for three weeks, vs untreated CRC mice): no apparent differences in tumor loads
- histopathological analysis of colon sections (hematoxylin-eosin) ([4]; three weeks after second DSS treatment): differentiated adenocarcinoma
- histological analyses of colons ([4]; treated CRC-mice): not only a loss of entire crypts and surface epithelial layer, but also a massive leukocyte infiltration into the mucosa
- T-cell proliferative ability [5]: decreased T-cell proliferative ability
- NO^− production ([6]; lamina propria and epithelial MDSCs, vs untreated CRC mice): NO^− levels remained elevated
- NO^− and ROS production ([6]; splenic MDSCs, compared to untreated CRC-mice): elevated levels
- CD247 expression levels in T-cells [7]: low CD247 levels
- cleaved caspase-3 in purified cultured MDSCs [8]: not CPT11 leads to cleaved caspase-3 up-regulation
- S100A8/9 mRNA and protein levels [9]: increased S100A8/9 levels
- myeloid cell differentiation in vivo (DCs and macrophages) [10]: blocked myeloid cell differentiation
- MDSCs within the colon (immunohistochemical probing) ([11]; anti-Gr-1 staining): elevated levels of the cells
- MDSC numbers / infiltration in colon ([11]; lamina propria and epithelium, flow cytometry, vs untreated CRC-mice): increased MDSC numbers
- β-catenin localization in CRC colons [12]: massive β-catenin accumulation in the nuclei of tumor cells
- cleaved caspase-3 expression in spleen MDSCs [13]: decreased cleaved caspase-3 levels
- NO^− and ROS production in monocytic and granulocyte MDSC populations [14]: increased NO^− (FIG. 9H) and ROS (FIG. 9I) production
- NO^− or ROS production in purified cultured MDSCs [14]: resulted in their elevation
- vitality and survival of the mice [15]: increased death rates
- ROS and NO^− production [16]: induced opposite effects

Compound: ipilimumab: humanized anti-CTLA4 monoclonal antibody
- survival in months ([17]; LDH high group (>480 U/I, n=20) prior to ipilimumab): 6.6±0.9 months
- survival in months ([17]; LDH low group (<480 U/I, n=28) prior to ipilimumab): 13.5±1.4 months
- survival in months ([17]; M1A/B/C group (n=35), metastatic level prior to ipilimumab): 12.4±1.2 months
- survival in months ([17]; M2 group (n=18), metastatic level prior to ipilimumab): 6.1±1.1 months
- survival in months ([17]; melanoma patients, High MDSCs group (>55.5%, n=14) prior to ipilimumab): 6.857±1.4 months
- survival in months ([17]; melanoma patients, Low MDSCs group (<55.5%, n=39) prior to ipilimumab): 11.56±1.2 months
- patients that responded to the ipilimumab treatment ([17]; out of the 56 patients involved in this study): 14 patients
